According to patent US10174013B2, “Benzimidazole derivatives as kinase inhibitors” (SELVITA S.A., priority 2012, dated 2019):
Counter-ions that a name gives are not always drawn.

Key:
FLT3(D835Y) = FLT3(D835Y) (Homo sapiens (Human), UniProt P36888, D835Y); assay: Binding to FLT3(D835Y) mutant (DiscoveRx)
Protocol: (§1) Selected compounds were also tested for their binding properties against FLT3 kinase mutants using suitable in vitro assays (performed according to standard assays at DiscoveRx Corporation). The compounds show strong binding to the main oncogenic mutants of the FLT3 kinase, see Table 1B.

FLT3(ITD) = FLT3(ITD) (Homo sapiens, UniProt P36888, ITD); assay: Binding to FLT3(ITD) mutant (DiscoveRx)
Protocol: as §1

HEL-92 = assay: Combination study with anti-cancer agents, cell viability, HEL-92; conditions: for Effect of combination: 72 hours
Protocol: (§2) After this incubation, a cell viability assay was carried out according to the Manufacturer's instructions (CellTiter 96®AQueous Non-Radioactive Cell Proliferation Assay, Promega). The results were expressed as percentage of viable cells upon treatment with the individual drugs or the combination compared to the vehicle (DMSO) treated cells.

PC3 = assay: Combination study with anti-cancer agents, cell viability, PC3; conditions: for Effect of combination: 72 hours
Protocol: as §2

FLT3wt = FLT3wt (Homo sapiens (Human), UniProt P36888); assay: Binding to FLT3 wildtype (DiscoveRx)
U-937 = assay: Combination study with anti-cancer agents, cell viability, U-937; conditions: for Effect of combination: 72 hours
Protocol: as §2

[1] = system: Pim kinase biomarkers in MV4-11 cells; assay: Pim-kinase biomarkers in MV4-11 cells; format: cell-based, Human; conditions: 0.25-5 μM, 4 and 24 h
Protocol: The efficacy of compounds 1A and 2A on Pim kinase-inhibition was tested in MV4-11 cells (see above). Cells were treated with each compound at concentrations of 0.25, 0.5, 1, 2.5 and 5 μM for 4 and 24 h. The positive control Ref A (the commercially available inhibitor SGI-1776 [obtained from Selleck Bio]) was used at a concentration of 5 μM. DMSO (Dimethyl sulfoxide) was used as a negative control. The levels of the following classical Pim-1 kinase biomarkers were assessed: c-Myc, phospho-4EBP1 (Ser65, Thr37&46) and phosphorylated S6 (Ser235). […] Also, the levels of pro-apoptotic and pro-survival biomarkers were assessed. First, induction of apoptosis, recognizable as an appearance and increased expression of cleaved form of the PARP protein, was observed, both at 4 and 24 hours after compound stimulation at high concentrations. […] Levels of tubulin were assessed as a reference loading control.
The efficacy of compound 1BI on Pim kinase-inhibition was tested in MV4-11 cells. The cells were treated with compound 1BI at concentrations of 0.25, 0.5, 1, 2.5 and 5 μM for 4 and 24 h. The positive controls Ref. A (SGI-1776, see above) and Ref. B (the commercially available inhibitor Sunitinib [obtained from Ark Pharm]) were used at 5 μM concentration. DMSO (Dimethyl sulfoxide) was used as a negative control. The levels of the following classical Pim-1 kinase biomarkers were assessed: c-myc, phospho-4EBP1 (Ser65, Thr37&46) and phosphorylated S6 (Ser235/236). […] The levels of pro-apoptotic and pro-survival biomarkers were also assessed. […] Levels of tubulin were assessed as a reference loading control.

MV4-11 = assay: Combination study with anti-cancer agents, cell viability, MV4-11; conditions: for ED50 value in MV4-11: single agent, used as fixed concentration in combination study; for Effect of combination: 72 hours
Protocol: as §2

FLT3(D835H) = FLT3(D835H) (Homo sapiens (Human), UniProt P36888, D835H); assay: Binding to FLT3(D835H) mutant (DiscoveRx)
Protocol: as §1

Mino = assay: Combination study with anti-cancer agents, cell viability, Mino
Protocol: as §2

[2] = system: Pim kinase biomarkers in MOLM16 cells; assay: Pim-kinase biomarkers in MOLM16 cells; format: cell-based, Human; conditions: 0.1-2.5 μM, 4 and 24 h
Protocol: The efficacy of compound 1BI on Pim kinase-inhibition was also tested in MOLM16 cells (an acute myeloid leukemia cell line). The cells were treated with compound 1BI at concentrations of 0.1, 0.25, 0.5, 1 and 2.5 μM for 4 and 24 h. The positive controls Ref. A (SGI-1776, see above) and Ref. B (Sunitinib, see above) were used at 5 μM concentration. DMSO (Dimethyl sulfoxide) was used as a negative control. The levels of the following classical Pim-1 kinase biomarkers were assessed: c-myc, phospho-4EBP1 (Scr65, Thr37&46) and phosphorylated S6 (Scr235/236). […] The levels of a pro-apoptotic biomarker were assessed; induction of apoptosis, presented as an appearance and increased expression of cleaved form of PARP protein, was observed. Levels of tubulin were assessed as a reference loading control.

MOLM16 xenograft = MOLM16 xenograft in immunocompromised mice; format: in vivo; conditions: 100 mg/Kg QD
Text: Several compounds of the present invention have been studied in a xenograft in mice, an in vivo tumor transplantation model used to investigate the factors involved in malignant transformation, invasion and metastasis, as well as to examine response to therapy. For the purpose of acceptance of donor leukemic cells (MV4-11 or MOLM16 cells), immunocompromised mice were used, namely particularly severely compromised immunodeficient mice (NOD/scid, SCID/beige). When tumors developed size of approx. 50-200 mm^3, the compounds as indicated below in Tables 3 and 3a were administered orally every day for 2-3 weeks, in once a day (QD) or twice a day (BID) schedule. During the course of the experiment, the mice were monitored and the following two parameters were measured: the tumor growth inhibition (TGI) factor as a measure of therapeutic efficacy and the body weight change (ΔBW) factor as a measure of possible compound toxicity. The results are depicted in Tables 3 and 3a.
Additionally, compound 2A, together with other examples was tested in MOLM16 cells xenografted into immunocompromised mice.

MOLM-16 = assay: Combination study with anti-cancer agents, cell viability, MOLM-16; conditions: for Effect of combination: MOLM-16 (Acute myeloid leukemia), 72 hours
Protocol: as §2

[3] = single agent, used as fixed concentration in combination study

## CCn1c(N2CCNCC2)nc2c([N+](=O)[O-])c(Br)c(Br)cc21 [Example 1A, 5,6-dibromo-1-ethyl-4-nitro-2-(piperazin-1-yl)-1H-1,3-benzodiazole hydrochloride]
FLT3(D835Y)
  Kd: 46 nM
FLT3(ITD)
  Kd: 74 nM
HEL-92; [3]
  ED50 value in HEL-92: 5460 nM
HEL-92; with CP690550, HEL92 (Erythroleukemia)
  Effect of combination: Synergistic
HEL-92; with Cyt387, HEL92 (Erythroleukemia)
  Effect of combination: Synergistic
HEL-92; with Ruxolitinib, HEL92 (Erythroleukemia)
  Effect of combination: Synergistic/
PC3; [3]
  ED50 value in PC3: 2910 nM
PC3; with CAL-101, PC3 (Prostate cancer)
  Effect of combination: Synergistic
PC3; with GDC-0941, PC3 (Prostate cancer)
  Effect of combination: Synergistic/
PC3; with Rapamycin, PC3 (Prostate cancer)
  Effect of combination: Synergistic
PC3; with Wortmannin, PC3 (Prostate cancer)
  Effect of combination: Synergistic
FLT3wt
  Kd: 400 nM
U-937; [3]
  ED50 value in U-937: 6640 nM
U-937; with ABT737, U937 (Histiocytic lymphoma)
  Effect of combination: Synergistic
U-937; with Obatoclax, U937 (Histiocytic lymphoma)
  Effect of combination: Synergistic
[1]
  Mcl-1 pro-survival protein level: dosed-dependent protein down-regulation
  induction of apoptosis (cleaved form of PARP protein): observed
  levels of c-myc protein: downregulated
  levels of phosphorylated 4EBP1 (Ser65, Thr37&46): downregulated
  levels of phosphorylated S6: downregulated
  levels of phosphorylated p44/42 (Erk1/2), Flt3 biomarker: downregulated
MV4-11
  ED50 value in MV4-11: 500 nM
MV4-11; with CAL-101, MV4-11 (Acute myeloid leukemia)
  Effect of combination: Synergistic
FLT3(D835H)
  Kd: 120 nM
Mino; [3]
  ED50 value in Mino: 1700 nM
Mino; with PD0332991, Mino (Mantle cell lymphoma), 72 hours
  Effect of combination: Synergistic

## CC(C)n1c(N2CC[C@@H](N)C2)nc2c(C#N)c(Br)c(Br)cc21 [Example 1BI]
[2]
  induction of apoptosis (cleaved form of PARP protein): observed
  levels of c-myc protein: downregulated
  levels of phosphorylated 4EBP1 (Ser65 and Thr37/46): downregulated
  levels of phosphorylated S6: diminished completely
[1]
  Mcl-1 pro-survival protein level: dosed-dependent protein down-regulation
  induction of apoptosis (cleaved form of PARP protein): observed in the highest concentration at 4 hours
  levels of c-myc protein: down-regulated
  levels of phosphorylated 4EBP1 (Ser65, Thr37&46): down-regulated
  levels of phosphorylated S6: diminished almost completely
  levels of phosphorylated p44/42 (Erk1/2), Flt3 biomarker: downregulated

## CC(C)n1c(N2CCNCC2)nc2c([N+](=O)[O-])c(Br)c(Br)cc21 [Example 2A, 5,6-dibromo-4-nitro-2-(piperazin-1-yl)-1-(propan-2-yl)-1H-1,3-benzodiazole hydrochloride]
FLT3(ITD)
  Kd: 18 nM
MOLM16 xenograft
  ΔBW (body weight change): −8.6%
MOLM16 xenograft; hydrochloride
  TGI (tumor growth inhibition): >99%

## CC(C)n1c(C2CCNCC2)nc2c([N+](=O)[O-])c(Br)c(Br)cc21 [Example 26A, 5,6-dibromo-4-nitro-2-(piperidin-4-yl)-1-(propan-2-yl)-1H-1,3-benzodiazole]
MOLM-16; [3]
  ED50 value in MOLM-16: 400 nM
MOLM-16; with C (Cytarabine)
  Effect of combination: Synergistic
MOLM-16; with V (Vosaroxin)
  Effect of combination: Synergistic
MV4-11
  ED50 value in MV4-11: 100 nM
MV4-11; with C (Cytarabine), MV4-11 (Acute myeloid leukemia)
  Effect of combination: Synergistic
MV4-11; with V (Vosaroxin), MV4-11 (Acute myeloid leukemia)
  Effect of combination: Synergistic
